From ChEMBL document CHEMBL1201862, “PubChem BioAssay data set” (2004)
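Tested at 5 concentrations; 48 h exposure; 96-well plates; endpoints linearly interpolated, else capped at highest concentration. GI50: concentration for 50% inhibition of growth.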 The source made the active and inactive calls. Cut-off read from the data, not from the text of the source: active = GI50 up to about 1.1 µM and inactive = higher.

Key:
Test in all cases: NCI anticancer screen, dose series, 48 h
SNB-78 = system: SNB-78
UACC-257 = system: UACC-257
RPMI-8226 = system: RPMI-8226
Malme-3M = system: Malme-3M
A498 = system: A498
OVCAR-8 = system: OVCAR-8
K562 = system: K562
KM-20L2 = system: KM-20L2
NCI-H522 = system: NCI-H522
ACHN = system: ACHN
KM12 = system: KM12
MOLT-4 = system: MOLT-4
SF-268 = system: SF-268
EKVX = system: EKVX
COLO 205 = system: COLO 205
M14 = system: M14
LOX IMVI = system: LOX IMVI
TK-10 = system: TK-10
786-0 = system: 786-0
CCRF-CEM = system: CCRF-CEM
RXF 631 = system: RXF 631
SR = system: SR
SNB-19 = system: SNB-19
UO-31 = system: UO-31
HCT-116 = system: HCT-116
HCC 2998 = system: HCC 2998
OVCAR-4 = system: OVCAR-4
SF-539 = system: SF-539
SK-MEL-28 = system: SK-MEL-28
HOP-92 = system: HOP-92
SK-MEL-5 = system: SK-MEL-5
XF498 = system: XF498
HT-29 = system: HT-29
SNB-75 = system: SNB-75
M19-MEL = system: M19-MEL
SF-295 = system: SF-295
SW-620 = system: SW-620
HL-60 = system: HL-60
HOP-18 = system: HOP-18
U-251 = system: U-251
LXFL 529 = system: LXFL 529
DMS-273 = system: DMS-273
RXF 393 = system: RXF 393
DLD-1 = system: DLD-1
NCI-H226 = system: NCI-H226
HOP-62 = system: HOP-62
A549 = system: A549
IGROV-1 = system: IGROV-1
DMS-114 = system: DMS-114
OVCAR-3 = system: OVCAR-3
NCI-H23 = system: NCI-H23
SN12C = system: SN12C
CAKI-1 = system: CAKI-1
SK-OV-3 = system: SK-OV-3
NCI-H460 = system: NCI-H460
UACC-62 = system: UACC-62
SK-MEL-2 = system: SK-MEL-2
HCT-15 = system: HCT-15
OVCAR-5 = system: OVCAR-5

Measured: GI50

Cc1cc(NS(=O)(=O)c2ccc(NC(=O)c3cccn4c(=O)c5ccccc5nc34)cc2)no1
inactive: SNB-78 > 100 µM | UACC-257 > 100 µM | RPMI-8226 > 100 µM | Malme-3M > 100 µM | A498 > 100 µM | OVCAR-8 > 100 µM | K562 > 100 µM | KM-20L2 > 100 µM | NCI-H522 > 100 µM | ACHN > 100 µM | KM12 > 100 µM | MOLT-4 > 100 µM | SF-268 > 100 µM | EKVX > 100 µM | COLO 205 > 100 µM | M14 > 100 µM | LOX IMVI > 100 µM | TK-10 > 100 µM | 786-0 > 100 µM | CCRF-CEM > 100 µM | RXF 631 > 100 µM | SR > 100 µM | SNB-19 > 100 µM | UO-31 > 100 µM | HCT-116 > 100 µM | HCC 2998 > 100 µM | OVCAR-4 > 100 µM | SF-539 > 100 µM | SK-MEL-28 > 100 µM | HOP-92 > 100 µM | SK-MEL-5 > 100 µM | XF498 > 100 µM | HT-29 > 100 µM | SNB-75 > 100 µM | M19-MEL > 100 µM | SF-295 > 100 µM | SW-620 > 100 µM | HL-60 > 100 µM | HOP-18 > 100 µM | U-251 > 100 µM | LXFL 529 > 100 µM | DMS-273 > 100 µM | RXF 393 > 100 µM | DLD-1 > 100 µM | NCI-H226 > 100 µM | HOP-62 > 100 µM | A549 > 100 µM | IGROV-1 > 100 µM | DMS-114 > 100 µM | OVCAR-3 > 100 µM | NCI-H23 > 100 µM | SN12C > 100 µM | CAKI-1 > 100 µM | SK-OV-3 > 100 µM | NCI-H460 > 100 µM | UACC-62 > 100 µM

CCc1cc(CCC(=O)Nc2c(C)cccc2C)n[nH]1
inactive: SNB-78 > 100 µM | UACC-257 > 100 µM | RPMI-8226 > 100 µM | Malme-3M > 100 µM | A498 > 100 µM | OVCAR-8 > 100 µM | K562 > 100 µM | KM-20L2 > 100 µM | NCI-H522 > 100 µM | ACHN > 100 µM | KM12 > 100 µM | MOLT-4 > 100 µM | SF-268 > 100 µM | EKVX > 100 µM | COLO 205 > 100 µM | M14 > 100 µM | TK-10 > 100 µM | 786-0 > 100 µM | SK-MEL-2 > 100 µM | CCRF-CEM > 100 µM | RXF 631 > 100 µM | SR > 100 µM | SNB-19 > 100 µM | UO-31 > 100 µM | HCT-116 > 100 µM | HCC 2998 > 100 µM | OVCAR-4 > 100 µM | SF-539 > 100 µM | SK-MEL-28 > 100 µM | HOP-92 > 100 µM | SK-MEL-5 > 100 µM | XF498 > 100 µM | HT-29 > 100 µM | SNB-75 > 100 µM | M19-MEL > 100 µM | SF-295 > 100 µM | SW-620 > 100 µM | HL-60 > 100 µM | HOP-18 > 100 µM | U-251 > 100 µM | LXFL 529 > 100 µM | DMS-273 > 100 µM | RXF 393 > 100 µM | DLD-1 > 100 µM | NCI-H226 > 100 µM | HOP-62 > 100 µM | A549 > 100 µM | IGROV-1 > 100 µM | OVCAR-3 > 100 µM | OVCAR-5 > 100 µM | NCI-H23 > 100 µM | SN12C > 100 µM | CAKI-1 > 100 µM | SK-OV-3 > 100 µM | NCI-H460 > 100 µM | UACC-62 > 100 µM
> 100 µM: HCT-15

O/N=C1/C(=C/c2ccc(F)cc2)CCCC1C(NO)c1ccc(F)cc1 (stereo unspecified)
38 µM: HCT-15
inactive: SNB-78 67 µM | UACC-257 25.4 µM | RPMI-8226 20.8 µM | Malme-3M 26.7 µM | A498 > 100 µM | OVCAR-8 35.8 µM | K562 29.1 µM | KM-20L2 28.8 µM | NCI-H522 17.5 µM | ACHN > 100 µM | KM12 22.3 µM | MOLT-4 22.3 µM | SF-268 23.2 µM | EKVX 38.9 µM | COLO 205 33.5 µM | M14 32.8 µM | TK-10 71.4 µM | 786-0 76.2 µM | SK-MEL-2 34.6 µM | CCRF-CEM 33.2 µM | RXF 631 33 µM | SNB-19 52.4 µM | UO-31 25.6 µM | HCT-116 30 µM | HCC 2998 35.6 µM | OVCAR-4 31.5 µM | SF-539 42.2 µM | SK-MEL-28 25.8 µM | SK-MEL-5 19 µM | XF498 64 µM | HT-29 21.6 µM | SNB-75 50.1 µM | M19-MEL 38.3 µM | SF-295 41 µM | SW-620 51.9 µM | HL-60 25.1 µM | HOP-18 21.1 µM | U-251 46.8 µM | LXFL 529 38.4 µM | DMS-273 40.6 µM | RXF 393 21.3 µM | DLD-1 65.2 µM | HOP-62 > 100 µM | A549 32.9 µM | IGROV-1 89.1 µM | DMS-114 29.9 µM | OVCAR-3 23.7 µM | NCI-H23 16.6 µM | SN12C 20.8 µM | CAKI-1 62.7 µM | SK-OV-3 > 100 µM | NCI-H460 > 100 µM | UACC-62 34.4 µM

CCCNC(=O)c1cc2ccccc2cc1C(=O)OC
inactive: SNB-78 > 100 µM | UACC-257 > 100 µM | RPMI-8226 60.8 µM | Malme-3M > 100 µM | A498 > 100 µM | OVCAR-8 > 100 µM | K562 > 100 µM | KM-20L2 > 100 µM | NCI-H522 > 100 µM | ACHN 78.2 µM | KM12 > 100 µM | MOLT-4 > 100 µM | SF-268 > 100 µM | EKVX > 100 µM | COLO 205 > 100 µM | M14 > 100 µM | TK-10 > 100 µM | 786-0 > 100 µM | SK-MEL-2 > 100 µM | CCRF-CEM > 100 µM | RXF 631 > 100 µM | SNB-19 > 100 µM | UO-31 58.5 µM | HCT-116 > 100 µM | HCC 2998 > 100 µM | OVCAR-4 > 100 µM | SF-539 > 100 µM | SK-MEL-28 > 100 µM | HOP-92 59.2 µM | SK-MEL-5 > 100 µM | XF498 > 100 µM | HT-29 > 100 µM | SNB-75 19.3 µM | M19-MEL > 100 µM | SF-295 > 100 µM | SW-620 > 100 µM | HL-60 > 100 µM | HOP-18 > 100 µM | U-251 > 100 µM | LXFL 529 > 100 µM | DMS-273 > 100 µM | DLD-1 > 100 µM | NCI-H226 83.4 µM | HOP-62 > 100 µM | A549 > 100 µM | IGROV-1 > 100 µM | DMS-114 > 100 µM | OVCAR-3 > 100 µM | OVCAR-5 > 100 µM | NCI-H23 > 100 µM | SN12C > 100 µM | CAKI-1 > 100 µM | SK-OV-3 > 100 µM | NCI-H460 > 100 µM | UACC-62 > 100 µM
> 100 µM: HCT-15

COc1nc2[nH]ccc2c(=O)n1C
inactive: SNB-78 > 100 µM | UACC-257 > 100 µM | RPMI-8226 > 100 µM | Malme-3M > 100 µM | A498 > 100 µM | OVCAR-8 > 100 µM | K562 > 100 µM | ACHN > 100 µM | KM12 > 100 µM | MOLT-4 > 100 µM | SF-268 > 100 µM | EKVX > 100 µM | COLO 205 > 100 µM | M14 > 100 µM | LOX IMVI > 100 µM | TK-10 > 100 µM | SK-MEL-2 > 100 µM | CCRF-CEM > 100 µM | RXF 631 > 100 µM | SR > 100 µM | SNB-19 > 100 µM | HCT-116 > 100 µM | OVCAR-4 20.5 µM | SF-539 > 100 µM | SK-MEL-28 > 100 µM | HOP-92 > 100 µM | SK-MEL-5 > 100 µM | XF498 > 100 µM | HT-29 > 100 µM | SNB-75 > 100 µM | SF-295 > 100 µM | SW-620 > 100 µM | HL-60 > 100 µM | HOP-18 > 100 µM | U-251 > 100 µM | LXFL 529 > 100 µM | DMS-273 > 100 µM | RXF 393 > 100 µM | DLD-1 > 100 µM | A549 > 100 µM | IGROV-1 > 100 µM | DMS-114 > 100 µM | OVCAR-5 > 100 µM | NCI-H23 > 100 µM | SN12C > 100 µM | CAKI-1 24.3 µM | NCI-H460 > 100 µM
> 100 µM: HCT-15
